In the supplement of paper PMC11208160:

Assay: recombinant UMI read abundance after kanamycin selection (control-corrected) (log10(CPM+1)); higher = more efficient recombination; extreme values may be limits of the assay; sequences stand for … in AGTGCAGAGAAAATCGGCCAGTTTTCTCTGCCTGCAGTCCGCATGCCGTGGGACCCCTTGGGTTCTAACCTGTTGCCTAGATTTATGCAGCGGACTGCCTTTCTCCCAAAGTGATAAACCGG…AGGTTGGTTTCACT; site = the 11-nt donor
How it was run: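 Reported values are log10(CPM+1) from a pooled Escherichia coli screen of donor and donor-binding-loop pairs for the IS621 bridge recombinase. Selection used IPTG (0.07 mM) plus kanamycin, against unselected plating, each in two replicates. Recombinant UMIs were amplified across the donor–target junction, sequenced, converted to CPM, averaged over replicates and scaled by control-derived factors.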
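Note: IS621 bridge recombinase in Escherichia coli cells against a fixed T5 target plasmid.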

Row | Sequence | recombinant UMI read abundance (log10)
1 | CAATTCCCATGGACCGGTTTTCCCGGTAATCCGTATTTGCC (site CAATTCCCTAG) | 0.635
2 | CAATTCCCATGGACCGGTTTTCCCGGTAATCCGTATTTGCC (site CAATTCCCTCG) | 0.0185
3 | CAATTCCCATGGACCGGTTTTCCCGGTAATCCGTATTTGCC (site CAATTCCCTGG) | 0
4 | CAATTCCCATGGACCGGTTTTCCCGGTAATCCGTATTTGCC (site CAATTCCCTTG) | 0
5 | CAATTCCCATGGACCGGTTTTCCCGGTAATCCGTATTTGGT (site CAATTCCCTAA) | 0.173
6 | CAATTCCCATGGACCGGTTTTCCCGGTAATCCGTATTTGGT (site CAATTCCCTAC) | 0.529
7 | CAATTCCCATGGACCGGTTTTCCCGGTAATCCGTATTTGGT (site CAATTCCCTAG) | 0
8 | CAATTCCCATGGACCGGTTTTCCCGGTAATCCGTATTTGGT (site CAATTCCCTAT) | 0.681
9 | CAATTGACATGGACCGGTTTTCCCGGTAATCCGTATTTGAA (site CAATTGACTTT) | 2.17
10 | CAATTTCCATGGACCGGTTTTCCCGGTAATCCGTATTTGCT (site CAATTACCTAG) | 0
11 | CAATTTCCATGGACCGGTTTTCCCGGTAATCCGTATTTGCT (site CAATTCCCTAG) | 0.761
12 | CAATTTCCATGGACCGGTTTTCCCGGTAATCCGTATTTGCT (site CAATTGCCTAG) | 0.00704
13 | CAATTTCCATGGACCGGTTTTCCCGGTAATCCGTATTTGCT (site CAATTTCCTAG) | 1.08
14 | CACAAATCATGGACCGGTTTTCCCGGTAATCCGTATTTGAC (site CACAAATCTGT) | 1.62
15 | CACAGCCCATGGACCGGTTTTCCCGGTAATCCGTATTTGTT (site CACAGCCCTAA) | 0.97
16 | CACAGCCCATGGACCGGTTTTCCCGGTAATCCGTATTTGTT (site CACCGCCCTAA) | 0.00684
17 | CACAGCCCATGGACCGGTTTTCCCGGTAATCCGTATTTGTT (site CACGGCCCTAA) | 0.0224
18 | CACAGCCCATGGACCGGTTTTCCCGGTAATCCGTATTTGTT (site CACTGCCCTAA) | 0.018
19 | CACAGTGCATGGACCGGTTTTCCCGGTAATCCGTATTTGAT (site CACAGTGCTAT) | 2.52
20 | CACATGGCATGGACCGGTTTTCCCGGTAATCCGTATTTGCC (site CACATGGCTGG) | 0
21 | CACCCTACATGGACCGGTTTTCCCGGTAATCCGTATTTGAG (site CACCCTACTCT) | 1.27
22 | CACCCTACATGGACCGGTTTTCCCGGTAATCCGTATTTGAG (site CCCCCTACTCT) | 0.0201
23 | CACCCTACATGGACCGGTTTTCCCGGTAATCCGTATTTGAG (site CGCCCTACTCT) | 0.0118
24 | CACCCTACATGGACCGGTTTTCCCGGTAATCCGTATTTGAG (site CTCCCTACTCT) | 0.0244
25 | CACCCTACATGGACCGGTTTTCCCGGTAATCCGTATTTGGC (site CACCCTACTGC) | 2.59

Row | Sequence | recombinant UMI read abundance (log10)
26 | CACCTTACATGGACCGGTTTTCCCGGTAATCCGTATTTGTC (site CACCTTACTGA) | 0
27 | CACGACCCATGGACCGGTTTTCCCGGTAATCCGTATTTGTT (site CACGACCCTAA) | 0.631
28 | CACGACCCATGGACCGGTTTTCCCGGTAATCCGTATTTGTT (site CACGCCCCTAA) | 0.0282
29 | CACGACCCATGGACCGGTTTTCCCGGTAATCCGTATTTGTT (site CACGGCCCTAA) | 0.0138
30 | CACGACCCATGGACCGGTTTTCCCGGTAATCCGTATTTGTT (site CACGTCCCTAA) | 0.00755
31 | CACGCATCATGGACCGGTTTTCCCGGTAATCCGTATTTGAT (site CACGCATCTAT) | 2.51
32 | CACGCGACATGGACCGGTTTTCCCGGTAATCCGTATTTGGC (site CACGCGACTGC) | 2.94
33 | CACGCTCCATGGACCGGTTTTCCCGGTAATCCGTATTTGTC (site CACGCTCCTGA) | 2.39
34 | CACGGACCATGGACCGGTTTTCCCGGTAATCCGTATTTGTT (site CACGGACCTAA) | 0.00996
35 | CACGGACCATGGACCGGTTTTCCCGGTAATCCGTATTTGTT (site CACGGCCCTAA) | 0.403
36 | CACGGACCATGGACCGGTTTTCCCGGTAATCCGTATTTGTT (site CACGGGCCTAA) | 0.387
37 | CACGGACCATGGACCGGTTTTCCCGGTAATCCGTATTTGTT (site CACGGTCCTAA) | 0
38 | CACGGCCCATGGACCGGTTTTCCCGGTAATCCGTATTTGCT (site CACGGCCCTAA) | 0.0432
39 | CACGGCCCATGGACCGGTTTTCCCGGTAATCCGTATTTGCT (site CACGGCCCTAC) | 0.0286
40 | CACGGCCCATGGACCGGTTTTCCCGGTAATCCGTATTTGCT (site CACGGCCCTAG) | 1.12
41 | CACGGCCCATGGACCGGTTTTCCCGGTAATCCGTATTTGCT (site CACGGCCCTAT) | 0.636
42 | CACGGCCCATGGACCGGTTTTCCCGGTAATCCGTATTTGTG (site CACGGCCCTAA) | 0.0211
43 | CACGGCCCATGGACCGGTTTTCCCGGTAATCCGTATTTGTG (site CACGGCCCTCA) | 0.0766
44 | CACGGCCCATGGACCGGTTTTCCCGGTAATCCGTATTTGTG (site CACGGCCCTGA) | 0
45 | CACGGCCCATGGACCGGTTTTCCCGGTAATCCGTATTTGTG (site CACGGCCCTTA) | 0.00311
46 | CACGGTCCATGGACCGGTTTTCCCGGTAATCCGTATTTGCA (site CACGGTCCTTG) | 1.74
47 | CACGGTCCATGGACCGGTTTTCCCGGTAATCCGTATTTGCA (site CCCGGTCCTTG) | 0
48 | CACGGTCCATGGACCGGTTTTCCCGGTAATCCGTATTTGCA (site CGCGGTCCTTG) | 0
49 | CACGGTCCATGGACCGGTTTTCCCGGTAATCCGTATTTGCA (site CTCGGTCCTTG) | 0
50 | CACGGTCCATGGACCGGTTTTCCCGGTAATCCGTATTTGTT (site CACGGACCTAA) | 0.00385

Row | Sequence | recombinant UMI read abundance (log10)
51 | CACGGTCCATGGACCGGTTTTCCCGGTAATCCGTATTTGTT (site CACGGCCCTAA) | 0.18
52 | CACGGTCCATGGACCGGTTTTCCCGGTAATCCGTATTTGTT (site CACGGGCCTAA) | 0.00486
53 | CACGGTCCATGGACCGGTTTTCCCGGTAATCCGTATTTGTT (site CACGGTCCTAA) | 1.4
54 | CACGTACCATGGACCGGTTTTCCCGGTAATCCGTATTTGCT (site CACGTACCTAG) | 0.0043
55 | CACTACTCATGGACCGGTTTTCCCGGTAATCCGTATTTGCC (site CACTACTCTGG) | 2.55
56 | CACTACTCATGGACCGGTTTTCCCGGTAATCCGTATTTGCC (site CACTCCTCTGG) | 0.801
57 | CACTACTCATGGACCGGTTTTCCCGGTAATCCGTATTTGCC (site CACTGCTCTGG) | 0.737
58 | CACTACTCATGGACCGGTTTTCCCGGTAATCCGTATTTGCC (site CACTTCTCTGG) | 0
59 | CACTAGGCATGGACCGGTTTTCCCGGTAATCCGTATTTGGA (site CACTAGGCTTC) | 0.727
60 | CACTAGGCATGGACCGGTTTTCCCGGTAATCCGTATTTGGA (site CACTCGGCTTC) | 0.0143
61 | CACTAGGCATGGACCGGTTTTCCCGGTAATCCGTATTTGGA (site CACTGGGCTTC) | 0.0136
62 | CACTAGGCATGGACCGGTTTTCCCGGTAATCCGTATTTGGA (site CACTTGGCTTC) | 0.0198
63 | CACTATGCATGGACCGGTTTTCCCGGTAATCCGTATTTGCG (site CACTATGCTCG) | 1.67
64 | CACTCCCCATGGACCGGTTTTCCCGGTAATCCGTATTTGAC (site CACTCCCCTGT) | 1.54
65 | CACTCCTCATGGACCGGTTTTCCCGGTAATCCGTATTTGAC (site CACTCCTCTGA) | 2.16
66 | CACTCCTCATGGACCGGTTTTCCCGGTAATCCGTATTTGAC (site CACTCCTCTGC) | 1.9
67 | CACTCCTCATGGACCGGTTTTCCCGGTAATCCGTATTTGAC (site CACTCCTCTGG) | 1.55
68 | CACTCCTCATGGACCGGTTTTCCCGGTAATCCGTATTTGAC (site CACTCCTCTGT) | 3.09
69 | CACTCGACATGGACCGGTTTTCCCGGTAATCCGTATTTGGG (site CAATCGACTCC) | 0.0326
70 | CACTCGACATGGACCGGTTTTCCCGGTAATCCGTATTTGGG (site CACTCGACTCC) | 0.2
71 | CACTCGACATGGACCGGTTTTCCCGGTAATCCGTATTTGGG (site CAGTCGACTCC) | 0
72 | CACTCGACATGGACCGGTTTTCCCGGTAATCCGTATTTGGG (site CATTCGACTCC) | 0.0164
73 | CACTGCCCATGGACCGGTTTTCCCGGTAATCCGTATTTGTT (site CACAGCCCTAA) | 0.0209
74 | CACTGCCCATGGACCGGTTTTCCCGGTAATCCGTATTTGTT (site CACCGCCCTAA) | 0.287
75 | CACTGCCCATGGACCGGTTTTCCCGGTAATCCGTATTTGTT (site CACGGCCCTAA) | 0.0106
